Among the data in PubChem BioAssay AID1745844 (Carcinogenic Potency Database (CPDB), 2022) are TD50 and carcinogen call values, retold here.

Several values for one entry are separate records, joined by “and”; a condition that tells them apart may be missing. Equal values may be shown once. Activity calls are given as the source filed them. How the calls were made is not given here.

The data set deals with rodent lifetime carcinogenesis bioassay, tumor incidence TD50. Briefly: carcinogenic potency in animals, long-term in vivo studies, CPDB compilation (AID 1745844).

For the compound `ClCOCCOCCl`, under “mouse, strain Ha/ICR, females, i.p., site: abdomen, lesion: several types, types named in the paper, dosed 78 weeks, study length 78 weeks”, the TD50 (as a rule, the 50% point of the dose-response relation for the toxic effect studied) was 4.62 mg/kg/day.

Regarding `C=C1C(CCl)(CCl)C2(Cl)C(Cl)C(Cl)C1(Cl)C2(Cl)Cl` (stereo not drawn), the TD50 is 91.6 mg/kg/day (mouse, strain B6C3F1, females, in feed, site: liver, lesion: hepatocellular adenoma, dosed 78 weeks, study length 104 weeks); 11.4 mg/kg/day and 11.6 mg/kg/day (mouse, strain B6C3F1, females, in feed, site: liver, lesion: hepatocellular adenoma, dosed 80 weeks, study length 90 weeks); 66.2 mg/kg/day (mouse, strain B6C3F1, females, in feed, site: liver, lesion: hepatocellular carcinoma, dosed 78 weeks, study length 104 weeks); 273 mg/kg/day (mouse, strain B6C3F1, females, in feed, site: liver, lesion: hepatocellular carcinoma, dosed 80 weeks, study length 90 weeks); 10.6 mg/kg/day and 10.8 mg/kg/day (mouse, strain B6C3F1, females, in feed, site: liver, lesion: several types, pooled by NCI/NTP, dosed 80 weeks, study length 90 weeks); 37 mg/kg/day (mouse, strain B6C3F1, females, in feed, site: liver, lesion: several types, types named in the paper, dosed 78 weeks, study length 104 weeks). For the same compound, the TD50 is, setting by setting: (mouse, strain B6C3F1, males, in feed, site: liver, lesion: hepatocellular adenoma, dosed 78 weeks, study length 104 weeks) 21.2 mg/kg/day; (mouse, strain B6C3F1, males, in feed, site: liver, lesion: hepatocellular adenoma, dosed 80 weeks, study length 90 weeks) 6.12 mg/kg/day and 5.76 mg/kg/day; (mouse, strain B6C3F1, males, in feed, site: liver, lesion: hepatocellular carcinoma, dosed 78 weeks, study length 104 weeks) 27.5 mg/kg/day; (mouse, strain B6C3F1, males, in feed, site: liver, lesion: hepatocellular carcinoma, dosed 80 weeks, study length 90 weeks) 248 mg/kg/day and 168 mg/kg/day; (mouse, strain B6C3F1, males, in feed, site: liver, lesion: several types, pooled by NCI/NTP, dosed 80 weeks, study length 90 weeks) 4.2 mg/kg/day and 4.08 mg/kg/day; (mouse, strain B6C3F1, males, in feed, site: liver, lesion: several types, types named in the paper, dosed 78 weeks, study length 104 weeks) 13.6 mg/kg/day. Moreover, the TD50 is 596 mg/kg/day (rat, strain Osborne-Mendel, females, in feed, site: any site (literature study), lesion: several types, types named in the paper, dosed 80 weeks, study length 108 weeks); 209 mg/kg/day (rat, strain Osborne-Mendel, females, in feed, site: thyroid gland, lesion: follicular-cell adenoma, dosed 80 weeks, study length 108 weeks); 1020 mg/kg/day (rat, strain Osborne-Mendel, males, in feed, site: any site (literature study), lesion: several types, types named in the paper, dosed 80 weeks, study length 108 weeks); 949 mg/kg/day (rat, strain Osborne-Mendel, males, in feed, site: liver, lesion: hepatocellular adenoma + hepatocellular carcinoma + neoplastic nodule, dosed 80 weeks, study length 108 weeks); 92.1 mg/kg/day (rat, strain Osborne-Mendel, males, in feed, site: liver, lesion: neoplastic nodule, dosed 80 weeks, study length 108 weeks); 58.9 mg/kg/day (rat, strain Osborne-Mendel, males, in feed, site: thyroid gland, lesion: follicular-cell adenoma + follicular-cell carcinoma, dosed 80 weeks, study length 108 weeks).

As to `COc1c2occc2cc2ccc(=O)oc12`, the TD50 (mouse, strain HRA/Skh (hairless), females, in feed, site: skin, lesion: several types, types named in the paper, dosed 52 weeks, study length 80 weeks) is 56.8 mg/kg/day (inactive); the TD50 (mouse, strain HRA/Skh (hairless), females, in feed, site: skin, lesion: squamous-cell carcinoma, dosed 52 weeks, study length 80 weeks) is 48.9 mg/kg/day (inactive); the TD50 (mouse, strain HRA/Skh (hairless), females, in feed, site: skin, lesion: squamous-cell papilloma, dosed 52 weeks, study length 80 weeks) was 151 mg/kg/day (inactive); the TD50 (mouse, strain HRA/Skh (hairless), males, in feed, site: skin, lesion: squamous-cell papilloma, dosed 52 weeks, study length 80 weeks) was 137 mg/kg/day (inactive); the TD50 (rat, strain Fischer 344, females, by gavage, site: any site (literature study), lesion: several types, types named in the paper, dosed 103 weeks, study length 105 weeks) came out at 45.6 mg/kg/day; the TD50 (rat, strain Fischer 344, females, by gavage, site: liver, lesion: hepatocellular adenoma + hepatocellular carcinoma + neoplastic nodule, dosed 103 weeks, study length 105 weeks) amounted to 5140 mg/kg/day. The TD50 reads like this: (rat, strain Fischer 344, females, by gavage, site: palate + tongue, lesion: squamous-cell papilloma, dosed 103 weeks, study length 105 weeks) 333 mg/kg/day (inactive); (rat, strain Fischer 344, males, by gavage, site: Zymbal's gland, lesion: carcinoma, NOS + squamous-cell carcinoma, dosed 103 weeks, study length 105 weeks) 101 mg/kg/day; (rat, strain Fischer 344, males, by gavage, site: any site (literature study), lesion: several types, types named in the paper, dosed 103 weeks, study length 105 weeks) 16.1 mg/kg/day; (rat, strain Fischer 344, males, by gavage, site: kidney + Zymbal's gland, lesion: tubular-cell adenoma + tubular-cell adenocarcinoma + carcinoma, NOS + squamous-cell carcinoma, dosed 103 weeks, study length 105 weeks) 27.3 mg/kg/day; (rat, strain Fischer 344, males, by gavage, site: kidney, lesion: tubular-cell adenocarcinoma, dosed 103 weeks, study length 105 weeks) 167 mg/kg/day; (rat, strain Fischer 344, males, by gavage, site: kidney, lesion: tubular-cell adenoma + tubular-cell adenocarcinoma, dosed 103 weeks, study length 105 weeks) 32.4 mg/kg/day. In addition, the TD50 by setting is: (rat, strain Fischer 344, males, by gavage, site: kidney, lesion: tubular-cell adenoma, dosed 103 weeks, study length 105 weeks) 43.2 mg/kg/day; (rat, strain Fischer 344, males, by gavage, site: lung, lesion: alveolar/bronchiolar adenoma + alveolar/bronchiolar carcinoma, dosed 103 weeks, study length 105 weeks) 57.1 mg/kg/day; (rat, strain Fischer 344, males, by gavage, site: lung, lesion: alveolar/bronchiolar adenoma, dosed 103 weeks, study length 105 weeks) 57.1 mg/kg/day; (rat, strain Fischer 344, males, by gavage, site: lung, lesion: alveolar/bronchiolar carcinoma, dosed 103 weeks, study length 105 weeks) 488 mg/kg/day; (rat, strain Fischer 344, males, by gavage, site: pancreas, lesion: acinar-cell adenoma, dosed 103 weeks, study length 105 weeks) 113 mg/kg/day; (rat, strain Fischer 344, males, by gavage, site: subcutaneous tissue, lesion: fibroma + sarcoma, NOS, dosed 103 weeks, study length 105 weeks) 70.2 mg/kg/day. For the same compound, the TD50 reads like this: (rat, strain Fischer 344, males, by gavage, site: subcutaneous tissue, lesion: fibroma, dosed 103 weeks, study length 105 weeks) 72.6 mg/kg/day; (rat, strain Fischer 344, males, by gavage, site: testis, lesion: interstitial-cell tumor, dosed 103 weeks, study length 105 weeks) 14.6 mg/kg/day. Besides, the carcinogen call by setting is: (mouse, strain HRA/Skh (hairless), males, in feed, site: skin, lesion: several types, types named in the paper, dosed 52 weeks, study length 80 weeks) “negative (inactive)”; (mouse, strain HRA/Skh (hairless), males, in feed, site: skin, lesion: squamous-cell carcinoma, in situ, dosed 52 weeks, study length 80 weeks) “negative (inactive)”; (mouse, strain HRA/Skh (hairless), males, in feed, site: skin, lesion: squamous-cell carcinoma, dosed 52 weeks, study length 80 weeks) “negative (inactive)”.

On to `CC(=O)Nc1ccc(S(=O)(=O)c2ccc(NC(C)=O)cc2)cc1`, for which the TD50 (rat, strain Buffalo, females, in feed, site: mammary gland, lesion: adenocarcinoma, dosed 43 weeks, study length 92 weeks) was 55.6 mg/kg/day.
